Data reported in US20220151921A1, “MONOCYTE-SELECTIVE DRUG DELIVERY SYSTEM USING SINGLE-WALLED CARBON NANOTUBES TO INDUCE EFFEROCYTOSIS” (The Board of Trustees of the Leland Stanford Junior …, priority 2019, published 2022).

Legend:
TPI release assay = type: physicochemical; conditions: PBS pH 5.5 and 6.5, carbonate buffer pH 9, through day 7
Experimental: TPI release Assay. We conducted assays to evaluate TPI release from SWNTs in carbonate buffer (pH 9) and PBS buffer (pH 6.5 and 5.5). SWNT-TPI (200 μL, 16.5 TPI molecules/SWNT on average) was added to MINI Dialysis Devices (MWCO: 20K) and the volume of release medium was 3 mL. At fixed timepoints from 1 day to 7 days, 2 μL of the outlet medium was removed to test the rate of TPI release. The cumulative drug release (CDR) percentage was calculated by the following equation: CDR (%)=Wreleased/Wloaded×100% Here, CDR represents the cumulative drug release percentage, Wreleased represents the mass of released TPI in the release media, Wloaded represents the total mass of TPI. TPI release in serum (20% Fetal Bovine Serum (FBS) in Phosphate-buffered saline (PBS)): the timepoints, sample volume, and calculation methods were identical to the above.

RAW 264.7 cells = assay: Cell proliferation assay (modified MTT); type: cell-based, murine
Experimental: Cell Proliferation Assay. A modified MTT (3-[4,5-dimethyl-thiazol-2-yl]-2,5-diphenyltetrazolium bromide) assay was performed to analyze macrophage proliferation. RAW 264.7 cells were plated at 25,000 cells/well in a 96-well plate grown overnight at 37°C., and serum-starved for the next 24 hrs. Cells were stimulated with 10% FBS for 24 hrs with SWNTs (4 nM), SWNT-TPI (TPI: 25 nM and 50 nM), or TPI (25 nM), and then incubated with 10 μL of MTT AB solution (Millipore, Billerica) for 2 hr. 100 μL of acidic isopropanol (0.04N HCl) was added to each well and the absorbance was measured at 570 nm (reference wavelength 650 nm) on an ELISA plate reader a SpectraMax 190 Microplate Reader (Molecular Devices). Statistical analysis Statistical differences were determined by one-way ANOVA, and results were expressed as means±SE. p-value<0.05 and p-value<0.01 were considered to indicate statistical significance. Statistical analyses were performed using GraphPad Prism 7 (GraphPad Inc.).

SHP-1 = SHP-1 (Homo sapiens, UniProt P29350); conditions: cited from earlier work
Chain of SHP-1 (P29350 whole entry): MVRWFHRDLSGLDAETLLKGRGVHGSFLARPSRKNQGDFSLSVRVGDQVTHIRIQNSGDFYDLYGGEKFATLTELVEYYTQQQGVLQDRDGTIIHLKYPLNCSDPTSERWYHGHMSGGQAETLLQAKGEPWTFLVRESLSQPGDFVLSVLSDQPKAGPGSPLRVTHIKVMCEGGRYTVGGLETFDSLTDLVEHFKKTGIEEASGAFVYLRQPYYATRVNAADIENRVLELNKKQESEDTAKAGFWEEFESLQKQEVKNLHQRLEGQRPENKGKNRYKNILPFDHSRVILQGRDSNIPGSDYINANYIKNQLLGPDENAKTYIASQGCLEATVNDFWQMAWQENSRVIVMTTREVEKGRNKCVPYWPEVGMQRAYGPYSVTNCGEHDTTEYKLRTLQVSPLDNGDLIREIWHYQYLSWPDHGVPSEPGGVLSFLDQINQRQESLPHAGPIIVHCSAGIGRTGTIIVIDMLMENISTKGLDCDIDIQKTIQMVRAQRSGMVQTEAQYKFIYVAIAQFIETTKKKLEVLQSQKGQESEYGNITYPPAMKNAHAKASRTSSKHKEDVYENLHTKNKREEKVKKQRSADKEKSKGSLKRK

O=C1C=CC(=O)C(c2cc(Cl)ccc2Cl)=C1 [TPI, 2-(2,5-dichlorophenyl)-2,5-cyclohexadiene-1,4-dione]
TPI release from SWNTs in saline buffers (TPI release assay): accelerated by progressively more acidic conditions
RAW cell proliferation (RAW 264.7 cells): no significant effect
IC50 (SHP-1): 40 nM
selectivity for SHP-1 over SHP-2 (SHP-1): selective toward SHP-1
effectiveness as SHP-1 inhibitor relative to sodium stibogluconate (SHP-1; versus sodium stibogluconate): over two orders of magnitude

O=S(=O)(O)c1ccc2cc(N=Nc3cc(S(=O)(=O)O)c4cccnc4c3O)ccc2c1 [NSC87877]
IC50 (SHP-1): 355 nM
